Source: patent US7723289B2, “PIF tetrapeptides” (BioIncept, LLC, priority 2003, dated 2010)

Assays:
PBMC [1] = assay: PIF and analogues on release of cytokines +/- platebound mAbCD3 (Table 4); format: cell-based; set-up: IL-1β / TNFa / IL-4 / IL-5 / IL-6 / IL-10 / GM-CSM / IFN-g: unit not given here
PBMC [2] = assay: Time-dependent cytokine secretion by PBMC (Table 3); format: cell-based, human; conditions: substance alone
Description: Detailed time dependent and multiple controls were used the secretion of several cytokines by PBMC (IL-2, IL-5, IL-8, GM-CSF, IL-4, IL-10, TNF-α, IFN-γβ, IL-1 and IL-6) were measured. […] By 4 hours, sPIF-1 blocked TNF alpha with recovery by 24 hours. Also INFgamma secretion initiated only after 48 hours. […] Effects on cytokines was already noted at 0.7 nM. Similar effects were found also with other mitogens LPS and PHA when PIF-1 was tested.

PBMC [3] = assay: PIF-1 effects on cytokine expression in patient and control PBMC (Table 7); format: cell-based, human; conditions: PHA +, PIF-115 −
epithelial cells = assay: PIF binding to endometrial epithelial cells (MaBCD2 staining); set-up: species or system human; conditions: compared to non-relevant IgG
Description: In addition, to compare the recovery of β-3 integrin expression with PIF effects described after cultured hEEC in a free-fetal bovine serum (FBS) medium some cells were cultured again in FBS-medium. […] PIF binding to epithelial cells was also examined. Binding was examined using MaBCD2 staining.

PBMC [4] = assay: FITC-labeled PIF binding to PBMC subpopulations (flow cytometry); set-up: species or system human; conditions: 0.75 to 48.19 μM, 1 h room temperature
Description: Expression of PIF-1(15) (SEQ ID NO:1), receptor following PHA induced PBMC proliferation CD-4 T cells; CD-8 T cells; NK cell and B cells (unstimulated-top); (PHA stimulated-bottom). Flow cytometry analysis of PBMC following exposure to FITC sPIF-1(15) (SEQ ID NO:13) % expression was determined in PBMC subtypes before and after exposure to 1 ug/ml PHA for 24 hours.
Human PBMC were isolated by the Ficoll method. FITC-labeled nPIF-115 (SEQ ID NO: 1) and (FITC)-labeled scrPIF-1 (SEQ ID NO:5) and match-size irrelevant peptide (FITC)-labeled negative controls negPIF-1(15) (SEQ ID NO:11), were dissolved in PBS at concentrations ranging from 0.75 to 48.19 μM, and were incubated with 500,000 lymphocytes for 1 h at room temperature. The cells were washed 6 times with PBS and resuspended in 500 μl of the same buffer. T-cells and monocytes identification was performed in independent experiments by incubation with anti-CD3 and anti-CD14 antibody-phycoerithryn (PE) labeled. nPIF-115 (SEQ ID NO: 1) binding to PBMC was determined by flow cytometry. In addition, rosettes formed by T cell-platelets were detected by flow cytometry using anti-CD3 antibody-PE and anti-CD41a antibody-FITC (all antibodies were from Pharmingen Inc.).
Using flow cytometry fluoroscein-labeled sPIF-115 (SEQ ID NO: 13) binding to immune cells was examined on resting PBMC.

PGSA [sPIF-1(4)]
GM-CSM (PBMC [1]; C- (platebound mAbCD3), /1): 13.7 | IFN-g (PBMC [1]; C- (platebound mAbCD3), /1): 81.3 | IL-1β (PBMC [1]; C- (platebound mAbCD3), /1): 6.0 | IL-2 (PBMC [1]; C- (platebound mAbCD3), /1): 24.0 | IL-4 (PBMC [1]; C- (platebound mAbCD3), /1): 0 | IL-5 (PBMC [1]; C- (platebound mAbCD3), /1): 0 | IL-6 (PBMC [1]; C- (platebound mAbCD3), /1): 233.6 | IL-8 (PBMC [1]; C- (platebound mAbCD3), /1): >5000 | IL-10 (PBMC [1]; C- (platebound mAbCD3), /1): 44.1 | TNFa (PBMC [1]; C- (platebound mAbCD3), /1): 68.3 | GM-CSM (PBMC [1]; C- (platebound mAbCD3), /50): 27.3 | IFN-g (PBMC [1]; C- (platebound mAbCD3), /50): 145.4 | IL-1β (PBMC [1]; C- (platebound mAbCD3), /50): 7.3 | IL-2 (PBMC [1]; C- (platebound mAbCD3), /50): 36.2 | IL-4 (PBMC [1]; C- (platebound mAbCD3), /50): 17.8 | IL-5 (PBMC [1]; C- (platebound mAbCD3), /50): 8.6 | IL-6 (PBMC [1]; C- (platebound mAbCD3), /50): 270.1 | IL-8 (PBMC [1]; C- (platebound mAbCD3), /50): >5000 | IL-10 (PBMC [1]; C- (platebound mAbCD3), /50): 82.5 | TNFa (PBMC [1]; C- (platebound mAbCD3), /50): 299.9 | GM-CSM (PBMC [1]; U- (no mAbCD3), /1): 0 | IFN-g (PBMC [1]; U- (no mAbCD3), /1): 0 | IL-1β (PBMC [1]; U- (no mAbCD3), /1): 0 | IL-2 (PBMC [1]; U- (no mAbCD3), /1): 0 | IL-4 (PBMC [1]; U- (no mAbCD3), /1): 0 | IL-5 (PBMC [1]; U- (no mAbCD3), /1): 0 | IL-6 (PBMC [1]; U- (no mAbCD3), /1): 32.9 | IL-8 (PBMC [1]; U- (no mAbCD3), /1): 809.3 | IL-10 (PBMC [1]; U- (no mAbCD3), /1): 0 | TNFa (PBMC [1]; U- (no mAbCD3), /1): 0 | GM-CSM (PBMC [1]; U- (no mAbCD3), /50): 0 | IFN-g (PBMC [1]; U- (no mAbCD3), /50): 0 | IL-1β (PBMC [1]; U- (no mAbCD3), /50): 0 | IL-2 (PBMC [1]; U- (no mAbCD3), /50): 0 | IL-4 (PBMC [1]; U- (no mAbCD3), /50): 0 | IL-5 (PBMC [1]; U- (no mAbCD3), /50): 0 | IL-6 (PBMC [1]; U- (no mAbCD3), /50): 33.4 | IL-8 (PBMC [1]; U- (no mAbCD3), /50): 1079.9 | IL-10 (PBMC [1]; U- (no mAbCD3), /50): 0 | TNFa (PBMC [1]; U- (no mAbCD3), /50): 0 | effect on IL6 and 8 (PBMC [1]; non-stimulated PBMC): stimulatory effect

MVRIK [sPIF-1(5)]
GM-CSM (PBMC [1]; C- (platebound mAbCD3), /1): 26.8 | IFN-g (PBMC [1]; C- (platebound mAbCD3), /1): 98.2 | IL-1β (PBMC [1]; C- (platebound mAbCD3), /1): 10.7 | IL-2 (PBMC [1]; C- (platebound mAbCD3), /1): 19.2 | IL-4 (PBMC [1]; C- (platebound mAbCD3), /1): 16.93 | IL-5 (PBMC [1]; C- (platebound mAbCD3), /1): 0 | IL-6 (PBMC [1]; C- (platebound mAbCD3), /1): 221.8 | IL-8 (PBMC [1]; C- (platebound mAbCD3), /1): >5000 | IL-10 (PBMC [1]; C- (platebound mAbCD3), /1): 68.5 | TNFa (PBMC [1]; C- (platebound mAbCD3), /1): 142.8 | GM-CSM (PBMC [1]; C- (platebound mAbCD3), /50): 20.7 | IFN-g (PBMC [1]; C- (platebound mAbCD3), /50): 81.2 | IL-1β (PBMC [1]; C- (platebound mAbCD3), /50): 5.3 | IL-2 (PBMC [1]; C- (platebound mAbCD3), /50): 20.0 | IL-4 (PBMC [1]; C- (platebound mAbCD3), /50): 0 | IL-5 (PBMC [1]; C- (platebound mAbCD3), /50): 0 | IL-6 (PBMC [1]; C- (platebound mAbCD3), /50): 178.9 | IL-8 (PBMC [1]; C- (platebound mAbCD3), /50): >5000 | IL-10 (PBMC [1]; C- (platebound mAbCD3), /50): 57.2 | TNFa (PBMC [1]; C- (platebound mAbCD3), /50): 81.1 | GM-CSM (PBMC [1]; U- (no mAbCD3), /1): 0 | IFN-g (PBMC [1]; U- (no mAbCD3), /1): 0 | IL-1β (PBMC [1]; U- (no mAbCD3), /1): 0 | IL-2 (PBMC [1]; U- (no mAbCD3), /1): 0 | IL-4 (PBMC [1]; U- (no mAbCD3), /1): 0 | IL-5 (PBMC [1]; U- (no mAbCD3), /1): 0 | IL-6 (PBMC [1]; U- (no mAbCD3), /1): 28.9 | IL-8 (PBMC [1]; U- (no mAbCD3), /1): 763.6 | IL-10 (PBMC [1]; U- (no mAbCD3), /1): 0 | TNFa (PBMC [1]; U- (no mAbCD3), /1): 0 | GM-CSM (PBMC [1]; U- (no mAbCD3), /50): 0 | IFN-g (PBMC [1]; U- (no mAbCD3), /50): 0 | IL-1β (PBMC [1]; U- (no mAbCD3), /50): 0 | IL-2 (PBMC [1]; U- (no mAbCD3), /50): 0 | IL-4 (PBMC [1]; U- (no mAbCD3), /50): 0 | IL-5 (PBMC [1]; U- (no mAbCD3), /50): 0 | IL-6 (PBMC [1]; U- (no mAbCD3), /50): 37.6 | IL-8 (PBMC [1]; U- (no mAbCD3), /50): 786.4 | IL-10 (PBMC [1]; U- (no mAbCD3), /50): 0 | TNFa (PBMC [1]; U- (no mAbCD3), /50): 0 | effect on cytokine secretion (PBMC [1]; following exposure to CD3Mab, dose dependent): mild

phytohemmaglutinin [PHA, reference compound]
GM-CSF (PBMC [2]; 4 h post induction): 60.4 pg/mL | IFN-y (PBMC [2]; 4 h post induction): 0 pg/mL | IL-1β (PBMC [2]; 4 h post induction): 891.2 pg/mL | IL-2 (PBMC [2]; 4 h post induction): 28.7 pg/mL | IL-4 (PBMC [2]; 4 h post induction): 0 pg/mL | IL-5 (PBMC [2]; 4 h post induction): 0 pg/mL | IL-6 (PBMC [2]; 4 h post induction): 7045.0 pg/mL | IL-8 (PBMC [2]; 4 h post induction): 0 pg/mL | IL-10 (PBMC [2]; 4 h post induction): 13.3 pg/mL | TNF-α (PBMC [2]; 4 h post induction): 18829.1 pg/mL | GM-CSF (PBMC [2]; 24 h post induction): 60.0 pg/mL | IFN-y (PBMC [2]; 24 h post induction): 1728.8 pg/mL | IL-1β (PBMC [2]; 24 h post induction): 5010.5 pg/mL | IL-2 (PBMC [2]; 24 h post induction): 2800.6 pg/mL | IL-4 (PBMC [2]; 24 h post induction): 60.0 pg/mL | IL-5 (PBMC [2]; 24 h post induction): 125.0 pg/mL | IL-6 (PBMC [2]; 24 h post induction): >5200 pg/mL | IL-8 (PBMC [2]; 24 h post induction): >6330 pg/mL | IL-10 (PBMC [2]; 24 h post induction): 1411.5 pg/mL | TNF-α (PBMC [2]; 24 h post induction): >11390 pg/mL | GM-CSF (PBMC [2]; 48 h post induction): 0 pg/mL | IFN-y (PBMC [2]; 48 h post induction): 0 pg/mL | IL-1β (PBMC [2]; 48 h post induction): 0 pg/mL | IL-2 (PBMC [2]; 48 h post induction): 0 pg/mL | IL-4 (PBMC [2]; 48 h post induction): 0 pg/mL | IL-5 (PBMC [2]; 48 h post induction): 0 pg/mL | IL-6 (PBMC [2]; 48 h post induction): 0 pg/mL | IL-8 (PBMC [2]; 48 h post induction): 5634.0 pg/mL | IL-10 (PBMC [2]; 48 h post induction): 0 pg/mL | TNF-α (PBMC [2]; 48 h post induction): 0 pg/mL | GM-CSF (PBMC [2]; 96 h post induction): 0 pg/mL | IFN-y (PBMC [2]; 96 h post induction): 0 pg/mL | IL-1β (PBMC [2]; 96 h post induction): 0 pg/mL | IL-2 (PBMC [2]; 96 h post induction): 0 pg/mL | IL-4 (PBMC [2]; 96 h post induction): 0 pg/mL | IL-5 (PBMC [2]; 96 h post induction): 0 pg/mL | IL-6 (PBMC [2]; 96 h post induction): 0 pg/mL | IL-8 (PBMC [2]; 96 h post induction): >6330 pg/mL | IL-10 (PBMC [2]; 96 h post induction): 0 pg/mL | TNF-α (PBMC [2]; 96 h post induction): 0 pg/mL | IL-10 (PBMC [3]; control): 25.72 % of total PBMC in scatter gate | TH1/TH2 (PBMC [3]; control): 0.68 | TNFα (PBMC [3]; control): 17.43 % of total PBMC in scatter gate | IL-10 (PBMC [3]; patient): 24.76 % of total PBMC in scatter gate | TH1/TH2 (PBMC [3]; patient): 0.57 | TNFα (PBMC [3]; patient): 14.23 % of total PBMC in scatter gate

SGIVIYQYMDDRYVGSDL [sPIF-3(18)]
binding to epithelial cells (epithelial cells): mild

GMRELQRSANK [negPIF-1(15), reference compound]
labeling of T cell-platelet rosettes by FITC-labeled peptide (PBMC [4]): not labeled
